Reference: article PMC4261083, “An atypical residue in the pore of Varroa destructor GABA-activated RDL receptors affects picrotoxin block and thymol modulation” (Insect Biochemistry and Molecular Biology, 2014)
Numbering of substitutions follows the chain as printed.

Legend:
Format in all cases: cell-based
[1] = target: T1, A20′S mutant Drosophila RDL receptor (Drosophila melanogaster, UniProt P25123, A319S); experiment: Thymol modulation of GABA concentration-response curves, two electrode voltage clamp in Xenopus oocytes
T1 construct: expressed in transfected cells; host or cells: Xenopus laevis oocytes injected with cRNA
T1 sequence (P25123 45-606 A319S): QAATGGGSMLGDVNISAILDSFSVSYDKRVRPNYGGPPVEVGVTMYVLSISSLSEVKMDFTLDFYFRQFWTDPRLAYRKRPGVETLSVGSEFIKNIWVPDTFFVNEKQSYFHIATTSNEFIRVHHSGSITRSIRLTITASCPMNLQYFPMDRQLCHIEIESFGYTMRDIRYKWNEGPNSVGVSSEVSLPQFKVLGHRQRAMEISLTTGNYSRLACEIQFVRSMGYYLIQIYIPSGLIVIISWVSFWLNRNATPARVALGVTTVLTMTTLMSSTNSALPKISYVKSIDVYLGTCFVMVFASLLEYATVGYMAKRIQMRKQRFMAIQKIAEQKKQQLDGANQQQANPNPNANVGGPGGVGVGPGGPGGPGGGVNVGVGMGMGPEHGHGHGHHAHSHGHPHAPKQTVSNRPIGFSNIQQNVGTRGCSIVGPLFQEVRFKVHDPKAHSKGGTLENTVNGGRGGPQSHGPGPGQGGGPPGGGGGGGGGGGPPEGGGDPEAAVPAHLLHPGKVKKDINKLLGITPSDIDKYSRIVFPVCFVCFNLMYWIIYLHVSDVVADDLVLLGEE
Description: (§1) X. laevis oocyte-positive females were purchased from NASCO (Fort Atkinson, Wisconsin, USA) and maintained according to standard methods. Harvested stage V-VI Xenopus oocytes were washed in four changes of ND96 (96 mM NaCl, 2 mM KCl, 1 mM MgCl2, 1 mM CaCl2, 5 mM HEPES, pH 7.5), de-folliculated in 1.5 mg ml^−1 collagenase Type 1A for approximately 2 h, washed again in four changes of ND96 and stored in ND96 containing 2.5 mM sodium pyruvate, 0.7 mM theophylline and […].
(§2) Site directed mutagenesis was performed with the QuikChange mutagenesis kit (Agilent, La Jolla, CA). cRNA was transcribed in vitro from linearised pGEMHE cDNA template using the mMessage mMachine T7 Transcription kit (Ambion, Austin, Texas, USA). Stage V and VI oocytes were injected with 5 ng cRNA, incubated at 18 °C, and currents recorded 18–24 h post-injection.
(§3) Currents were recorded at 5 kHz and filtered at a frequency of 1 kHz. Micro-electrodes were fabricated from borosilicate glass (GC120TF-10, Harvard Apparatus, Edenbridge, Kent, UK) using a one stage horizontal pull (P-87, Sutter Instrument Company, California, USA) and filled with 3 M KCl. […] Oocytes were perfused with ND96 at a constant rate of 12 ml min^−1. Drug application was via a simple gravity fed system calibrated to run at the same rate.
(§4) Analysis and curve fitting was performed using Prism v5 (GraphPad Software, San Diego, California, USA). Concentration-response data for each oocyte was normalised to the maximum current for that oocyte. The mean and S.E.M. for a series of oocytes were fitted to the four parameter logistic equation in Prism.

[2] = target: T2, wild type Drosophila RDL receptor (Drosophila melanogaster, UniProt P25123); experiment: as above; settings: WT RDL
T2 construct: expressed in transfected cells; host or cells: Xenopus laevis oocytes injected with cRNA
T2 sequence (P25123 45-606): T1 sequence (P25123 45-606 A319S) with S275A
Description: as §1, §2, §3, §4

[3] = target: T3, 4M2 mutant Drosophila RDL receptor (N-7′H, T6′M, A20′S and A21′Q) (Drosophila melanogaster, UniProt P25123, A319S/A320Q/N292H/T305M); experiment: GABA activation of RDL receptors, two electrode voltage clamp in Xenopus oocytes; settings: 4M2 RDL
T3 construct: expressed in transfected cells; host or cells: Xenopus laevis oocytes injected with cRNA
T3 sequence (P25123 45-606 N292H/T305M/A319S/A320Q): T1 sequence (P25123 45-606 A319S) with N248H, T261M, A276Q
Description: as §1, §2, §3, §4

[4] = GABA EC50 control vs +100 μM thymol
[5] = GABA concentration-response in presence of 100 μM thymol

Structure (SMILES)	Effect of thymol on GABA-induced responses ([1]; 100 μM thymol, 1 μM GABA)	Fold change in EC50 [1, 4]	% Imax [1, 5] [%]	Effect of thymol on GABA-induced responses ([2]; 100 μM thymol, 1 μM GABA)	Fold change in EC50 [2, 4]	% Imax [2, 5] [%]	GABA nH (Hill slope) [3]
Cc1ccc(C(C)C)c(O)c1 [Thymol, thymol]	enhance	5.0	81 ± 6	enhance	4.8	94 ± 3	–
NCCCC(=O)O [GABA]	–	–	–	–	–	–	1.0 ± 0.3
